molecular target: T1, human ferroportin (Homo sapiens, UniProt Q9NP59); assay: In-vitro ferroportin internalization assay (luciferase reporter); type: cell-based; settings: average pEC50; stably-transfected CHO cell line expressing human ferroportin tagged to a luciferase reporter; 6 h incubation with test compound
T1 construct: luciferase reporter (probably NanoLuc, inferred from the Nano-Glo Luciferase Assay System read-out); expressed in transfected cells; host or cells: CHO cells, stably transfected, expression induced with doxycycline
T1 sequence (Q9NP59 1-571): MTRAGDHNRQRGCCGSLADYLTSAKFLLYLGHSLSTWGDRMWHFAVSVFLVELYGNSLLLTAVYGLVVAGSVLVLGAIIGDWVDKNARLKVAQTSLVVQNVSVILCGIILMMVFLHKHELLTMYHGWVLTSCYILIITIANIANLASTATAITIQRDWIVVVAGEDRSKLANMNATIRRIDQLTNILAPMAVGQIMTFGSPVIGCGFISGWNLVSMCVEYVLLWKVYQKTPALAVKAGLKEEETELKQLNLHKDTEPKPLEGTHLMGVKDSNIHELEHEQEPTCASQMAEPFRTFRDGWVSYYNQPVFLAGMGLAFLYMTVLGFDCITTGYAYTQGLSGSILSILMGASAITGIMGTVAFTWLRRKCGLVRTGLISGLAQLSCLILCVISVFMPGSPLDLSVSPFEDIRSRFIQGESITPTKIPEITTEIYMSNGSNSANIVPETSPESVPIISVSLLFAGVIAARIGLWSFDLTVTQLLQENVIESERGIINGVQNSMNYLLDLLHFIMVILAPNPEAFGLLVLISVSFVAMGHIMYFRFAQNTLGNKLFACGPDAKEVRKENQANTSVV
Procedure: The protocol for this assay is generally as described in WO2018/128828, incorporated herein by reference in its entirety. Functional internalization of ferroportin protein was measured using a stably-transfected CHO cell line expressing the human ferroportin tagged to a luciferase reporter. Cells were plated for 24 h in the presence of ferric ammonium citrate (FAC). Ferroportin protein expression was induced with doxycycline for 24 h. The next day, the compounds were added. Test compounds were dissolved in DMSO. Cells were incubated with the test compounds for 6 h, and subsequently luciferase activity was measured using the Nano-Glo Luciferase Assay System and Glomax (Promega, Madison, Wis.). The average pEC50 was determined for the test compounds.

pEC50 | Compound
6.3 | Cc1cc(NC(=O)CN(C)c2nc(-c3ccccn3)nc3scc(-c4ccccc4)c23)no1 [Compound 238, N-(5-methyl-1,2-oxazol-3-yl)-2-{methyl[5-phenyl-2-(pyridin-2-yl)thieno[2,3-d]pyrimidin-4-yl]amino}acetamide]
5.8 | CNC(=O)CN(C)c1nc(-c2ccccn2)nc2sc(-c3ccccc3)cc12 [Compound 239, N-methyl-2-{methyl[6-phenyl-2-(pyridin-2-yl)thieno[2,3-d]pyrimidin-4-yl]amino}acetamide]
<5.0 | CCNC(=O)CN(C)c1nc(-c2ccccn2)nc2sc(-c3ccccc3)cc12 [Compound 240, N-ethyl-2-{methyl[6-phenyl-2-(pyridin-2-yl)thieno[2,3-d]pyrimidin-4-yl]amino}acetamide]
6.3 | COCCNc1nc(-c2ccccn2)nc2sc(C)c(C)c12 [Compound 241, N-(2-methoxyethyl)-5,6-dimethyl-2-(pyridin-2-yl)thieno[2,3-d]pyrimidin-4-amine]
7 | Cc1sc2nc(-c3ccccn3)nc(N(C)CC(=O)Nc3cccc(F)c3)c2c1C [Compound 242, 2-{[5,6-dimethyl-2-(pyridin-2-yl)thieno[2,3-d]pyrimidin-4-yl](methyl)amino}-N-(3-fluorophenyl)acetamide]
6.4 | Cc1sc2nc(-c3ccccn3)nc(NCCNc3ccccn3)c2c1C [Compound 243, N2-[5,6-dimethyl-2-(pyridin-2-yl)thieno[2,3-d]pyrimidin-4-yl]-N1-(pyridin-2-yl)ethane-1,2-diamine]
5.4 | CCN(CCO)c1nc(-c2ccccn2)nc2sc(C)c(-c3ccccc3)c12 [Compound 244, 2-{ethyl[6-methyl-5-phenyl-2-(pyridin-2-yl)thieno[2,3-d]pyrimidin-4-yl]amino}ethan-1-ol]
5.5 | CC1CC(=O)NCCN1c1nc(-c2ccccn2)nc2scc(-c3ccccc3)c12 (centres unmarked) [Compound 245, 7-methyl-1-[5-phenyl-2-(pyridin-2-yl)thieno[2,3-d]pyrimidin-4-yl]-1,4-diazepan-5-one]
6.2 | CN(CCCc1n[nH]c(N)c1C#N)c1nc(-c2ccccn2)nc2scc(-c3ccccc3)c12 [Compound 246, 5-amino-3-(3-{methyl[5-phenyl-2-(pyridin-2-yl)thieno[2,3-d]pyrimidin-4-yl]amino}propyl)-1H-pyrazole-4-carbonitrile]
7.3 | COc1ccc(NC(=O)[C@@H](C(C)C)N(C)c2nc(-c3ccccn3)nc3c2CCC3)cn1 [Compound 315, (2R)-N-(6-methoxypyridin-3-yl)-3-methyl-2-{methyl[2-(pyridin-2-yl)-5H,6H,7H-cyclopenta[d]pyrimidin-4-yl]amino}butanamide]
7.5 | COc1ccc(NC(=O)CN(C)c2nc(-c3cc4cn[nH]c4cn3)nc3c2CCC3)nc1 [Compound 334, N-(5-methoxypyridin-2-yl)-2-[methyl(2-{1H-pyrazolo[3,4-c]pyridin-5-yl}-5H,6H,7H-cyclopenta[d]pyrimidin-4-yl)amino]acetamide]
7.7 | CN(C)CCOc1ccnc(-c2nc3c(c(N(C)CC(=O)NC(C)(C)C)n2)CCC3)c1 [Compound 417, N-tert-butyl-2-[(2-{4-[2-(dimethylamino)ethoxy]pyridin-2-yl}-5H,6H,7H-cyclopenta[d]pyrimidin-4-yl)(methyl)amino]acetamide]
7.7 | CN(CC(=O)NC(C)(C)C)c1nc(-c2cc(OC[C@H](O)CO)ccn2)nc2c1CCC2 [Compound 484, N-tert-butyl-2-[(2-{4-[(2R)-2,3-dihydroxypropoxy]pyridin-2-yl}-5H,6H,7H-cyclopenta[d]pyrimidin-4-yl)(methyl)amino]acetamidede]

Compound | pEC50
CN(CC(=O)N1CC2CC(C2)C1)c1nc(-c2cc(OCCO)ccn2)nc2c1CCC2 [Compound 433, 1-{3-azabicyclo[3.1.1]heptan-3-yl}-2-({2-[4-(2-hydroxyethoxy)pyridin-2-yl]-5H,6H,7H-cyclopenta[d]pyrimidin-4-yl}(methyl)amino)ethan-1-one] | 8.1
